This is an account of results in patent US20040253193A1, “Oral rinse for treatment for prevention of bacterial and fungal infection” (priority 2001, published 2004).

Structures are written as SMILES.

The format of series [1] is physicochemical. The method, then:
Metronidazole (Apo-Metronidazole, Apotex Research Inc.) was prepared by grinding tablets into a powder form and water is added to make a paste. The paste was added to a suitable quantity of nystatin, which was obtained as an aqueous solution from Alimed or PMS PharmaScience (Nilstat™). […] The mouth rinse has a slightly sticky consistency that provides effective contact with the tissues.

Series [2] concerns anaerobic gram-negative microorganisms. As to conditions: short-term systemic use, administered orally in humans; cited from earlier work.

Take `Cc1ncc([N+](=O)[O-])n1CCO` [metronidazole]: the solubility in water entry in series [1] is recorded as “does not dissolve in water”. The “effect on anaerobic gram-negative microorganisms and periodontal health” value in series [2] was “sustained reduction of anaerobic gram-negative microorganisms”.
